The source of these data is patent publication US9199975B2, “Biaryl imidazole derivatives for regulating CYP17” (Asana Biosciences, LLC, priority 2011, dated 2015).

One experiment has as its target T1, rat CYP17 (Rattus norvegicus, UniProt P11715).
T1 construct: Rat testis tissue was collected and disrupted with 30 strokes of a glass homogenizer; from tissue; host or cells: rat testis (microsomal fraction)
T1 sequence (P11715 1-507): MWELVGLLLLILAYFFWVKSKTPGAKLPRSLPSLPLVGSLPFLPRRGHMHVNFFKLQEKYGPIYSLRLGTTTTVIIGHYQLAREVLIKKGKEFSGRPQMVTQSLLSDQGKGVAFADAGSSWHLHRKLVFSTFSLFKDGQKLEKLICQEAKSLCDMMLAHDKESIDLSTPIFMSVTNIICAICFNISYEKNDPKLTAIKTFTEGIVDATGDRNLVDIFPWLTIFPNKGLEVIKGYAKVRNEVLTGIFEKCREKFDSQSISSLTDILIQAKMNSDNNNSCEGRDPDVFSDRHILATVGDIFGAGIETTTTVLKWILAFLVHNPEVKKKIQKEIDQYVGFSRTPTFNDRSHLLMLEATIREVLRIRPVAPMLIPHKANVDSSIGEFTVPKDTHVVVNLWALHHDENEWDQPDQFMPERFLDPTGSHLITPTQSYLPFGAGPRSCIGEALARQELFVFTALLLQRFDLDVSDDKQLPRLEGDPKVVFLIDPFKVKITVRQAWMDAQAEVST
Briefly: CYP17 inhibition assay in rat testicular microsomes. The experiment is classed as biochemical. The following applies: 3H3-17α-hydroxypregnenolone substrate, 60 minutes at 37° C. The procedure:
(§1) CYP17 Inhibition Assay in Rat Testicular Microsomes (Rat CYP17) or Yeast Microsome Overexpressing Human CYP17
(§2) A. Materials • 1. NADPH (Sigma): A working stock was prepared by adding 25 μL of 6.5 mM NADPH in each tube. The final concentration of NADPH used in the assay was 325 μM. • 2. Potassium Phosphate Buffer: One molar (1M) solutions of K2HPO4 and KH2PO4 were prepared. Eight mL of the 1 M KH2PO4 and 1.98 mL of the 1 M K2HPO4 were combined and the pH was adjusted to 7.4. • 3. ^3H3-17α-hydroxypregnenolone (American Radiolabeled Chemicals, Inc., stock 1 μCi/μL): A 1:1 dilution of ^3H3-17α-hydroxypregnenolone in ethanol was prepared by combining 100 μL ^3H3-17α-hydroxypregnenolone+100 μL ethanol for one complete 96 well plate. For the reaction, 2 μL of the diluted ^3H3-17α-hydroxypregnenolone was added in each tube, i.e., 1 μCi/reaction. • 4. Microsome Isolation Buffer: The microsome isolation buffer was prepared by combining 250 mM Sucrose, 5 mM EDTA, 10 mM Tris HCl, 4 mM DTT, and adjusting to pH 7.4. • 5. TEG Buffer: The TEG buffer was prepared by combining 50 mM Tris HCl, 1 mM EDTA, and 20% Glycerol. • 6. Rat Testicular Microsomes: Rat testis tissue was collected and disrupted with 30 strokes of a glass homogenizer on ice with 250 μL of microsome isolation buffer, followed by centrifugation at 10,000 g for 10 minutes at 4° C. The supernatant was collected and centrifuged at 100,000 g for 45 minutes at 4° C. The pellet was dissolved in TEG Buffer and the protein was quantified. The homogenized microsome samples were then frozen at −80° C. • 7. Yeast Microsomes which overexpress the human CYP17 enzyme were obtained from Premas Biotech, India.
(§3) Potassium phosphate buffer (470 μL) was prepared as described above and was added to each well of a deep well plate. The test compound was diluted using a TECAN liquid handler and 5 μL of diluted compound was transferred to each well (96 deep well/1 mL). A solution (25 μL) of 6.5 mM NADPH was added (final concentration of 325 µM in the assay). ^3H3-17α-hydroxypregnenolone (2 μL of the working stock) was added to each tube. The plates were then pre-incubated for 15 minutes at 37° C. Following the pre-incubation, either 5 μL rat testicular microsomes (150-160 μg) or 5 μL of yeast microsomes expressing human CYP17 (1.7 pmol), was added. Incubation was at 37° C. for 60 minutes in the presence of oxygen. The plates were then placed in ice and chloroform (500 μL) was added, mixed well and incubated at 4° C. for 20 minutes. The plates were then centrifuged at 1000 rpm for 15 minutes at 4° C.
(§4) A portion (300 μL) of the aqueous solution was collected and mixed with a 5% aqueous suspension of activated charcoal (300 μL). The plates were then incubated at 4° C. for 30 minutes, after which the plates were centrifuged at 1000 rpm for 15 minutes at 4° C. From this, 125 μL of the aqueous solution was collected and plated into a 96 well plate. Microscint™ 40 [125 μL, Perkin-Elmer; containing a mixture of a polymer based on alkylphenolethoxylate (20-40%), diethanolamine-phosphoric acid ester ammonium salt (10-20%), sodium dioctyl sulphosuccinate (2.5-10%), triethyl phosphate (2.5-10%), 3,6-dimethyl-4-octyne-3,6-diol (≦2.5%), a polymer based on nonylphenolethoxylate (≦2.5%), diisopropyl naphthalene isomers (40-60%), 2,5-diphenyloxazole (≦2.5%), and 9,10-dimethylanthracene] was added and mixed well. After 30 minutes of incubation, the samples were analyzed with a MicroBeta® Trilux microplate liquid scintillation counter and luminometer (Perkin-Elmer).

A further experiment deals with T2, human CYP17 (Homo sapiens, UniProt P05093).
T2 sequence (P05093 1-508): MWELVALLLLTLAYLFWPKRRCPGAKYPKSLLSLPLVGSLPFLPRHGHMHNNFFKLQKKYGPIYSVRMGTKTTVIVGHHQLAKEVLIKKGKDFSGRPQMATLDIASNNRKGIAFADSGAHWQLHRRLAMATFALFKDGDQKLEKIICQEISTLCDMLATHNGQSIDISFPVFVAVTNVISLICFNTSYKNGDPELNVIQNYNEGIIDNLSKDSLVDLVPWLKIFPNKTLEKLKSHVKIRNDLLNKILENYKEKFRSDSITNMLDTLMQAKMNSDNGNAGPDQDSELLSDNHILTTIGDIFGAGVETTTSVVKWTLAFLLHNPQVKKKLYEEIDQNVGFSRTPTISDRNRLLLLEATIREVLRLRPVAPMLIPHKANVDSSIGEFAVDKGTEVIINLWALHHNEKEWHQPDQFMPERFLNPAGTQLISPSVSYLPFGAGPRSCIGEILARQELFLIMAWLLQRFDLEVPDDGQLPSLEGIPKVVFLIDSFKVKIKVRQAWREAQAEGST
Briefly: CYP17 inhibition assay in yeast microsomes overexpressing human CYP17. The following applies: yeast microsomes expressing human CYP17, 3H3-17α-hydroxypregnenolone substrate, 60 minutes at 37° C. The format is biochemical. The procedure: as §1, §2, §3, §4

SMILES strings stand for the structures. pIC50: −log10 of the molar value. A value given as a limit tells only on which side of the number the result lay.

Take `CCC(c1ccc(-c2ccccc2OC)cn1)n1ccnc1` (stereo not shown) [Example 56, 2-(1-Imidazol-1-yl-propyl)-5-(2-methoxy-phenyl)-pyridine]: the pIC50 (commonly the IC50 on a negative log10 scale, so that one unit is a factor of ten) is greater than 7.30 at rat CYP17 and 5.00 to 6.70 on human CYP17.

On to `CCC(c1ccc(-c2ccccc2O)cn1)n1ccnc1` (stereo not shown) [Example 37, 2-[6-(1-Imidazol-1-yl-propyl)-pyridin-3-yl]-phenol], for which the pIC50 at rat CYP17 was greater than 7.30; against human CYP17, 6.70 to 7.30.

As for `CC(c1ccc(-c2ccc(O)cc2)s1)n1ccnc1` (stereo not shown) [Example 49, 4-[5-(1-Imidazol-1-yl-ethyl)-thiophen-2-yl]-phenol], the figures for the pIC50 against rat CYP17 and against human CYP17 were greater than 7.30 and 6.70 to 7.30, respectively.

With `CCC(c1cccc(-c2ccc(OC)cc2)n1)n1ccnc1` (stereo not shown) [Example 38, 2-(1-Imidazol-1-yl-propyl)-6-(4-methoxy-phenyl) pyridine], the pIC50 was greater than 7.30 against rat CYP17 and 5.00 to 6.70 against human CYP17.

Regarding `CC(c1cnc(-c2ccc(F)cc2F)s1)n1ccnc1` (stereo not shown) [Example 28, 2-(2,4-Difluoro-phenyl)-5-(1-imidazol-1-yl-ethyl)-thiazole], the pIC50 against rat CYP17 is greater than 7.30; against human CYP17 it was 6.70 to 7.30.
